Non-standard residues stand in square brackets, D forms with d. Residues, ends and D or L forms follow the SMILES beside them. *: point of attachment. X1 = CC(C)CCC[C@@H](C)[C@H]1CC[C@H]2[C@@H]3CC=C4C[C@@H](OC(=O)C*)CC[C@]4(C)[C@H]3CC[C@]12C; Succinimide(1-Et,3-yl) = CCN1C(=O)CC(*)C1=O
Assays:
Mouse NMUR1-CTG = target: T1, Mouse NMUR1-CTG (Mus musculus, UniProt O55040); experiment: 125I-hNMU-25 binding assay, mouse R1-CTG; design: expressed in transfected cells; host or cells: HEK-293 FLP-In cells (pcDNA5); settings: for IC50: binding
T1 sequence (O55040 1-428): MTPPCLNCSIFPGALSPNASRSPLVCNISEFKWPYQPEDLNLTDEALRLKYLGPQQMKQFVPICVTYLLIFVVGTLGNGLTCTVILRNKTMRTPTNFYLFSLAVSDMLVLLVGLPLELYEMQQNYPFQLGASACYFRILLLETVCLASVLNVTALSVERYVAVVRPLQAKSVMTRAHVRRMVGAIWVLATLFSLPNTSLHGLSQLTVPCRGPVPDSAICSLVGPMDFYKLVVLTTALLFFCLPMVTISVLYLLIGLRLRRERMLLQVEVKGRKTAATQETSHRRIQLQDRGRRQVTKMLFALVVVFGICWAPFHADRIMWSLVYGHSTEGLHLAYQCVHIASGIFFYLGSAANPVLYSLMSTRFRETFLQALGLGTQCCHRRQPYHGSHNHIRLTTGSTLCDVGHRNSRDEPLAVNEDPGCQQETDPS
Procedure: (§1) Confluent cell monolayers expressing NMU receptors (the HEK cells described above) were harvested with phosphate buffered saline, collected by centrifugation, and resuspended in membrane buffer (50 mM TrisCl pH 7.4, 5 mM MgCl2, 1× Protease Inhibitor Cocktail, 10 μM phosphoramidon). After the cell pellet was homogenized, the solution was centrifuged at 18,000 rpm for 20 minutes at 4° C. The pellet was resuspended in membrane buffer to yield a final concentration of 0.5-5 μg/μL of membrane and stored at −80° C.
(§2) Experiments were performed in assay buffer (25 mM TrisCl, pH 7.4, 10 mM MgCl2, 2 mM EDTA, 1× Protease Inhibitor Cocktail, 100 μg/mL Bacitricin, 10 μM phosphoramidon) in 200 μL volumes in a 96-well format using 2-5 μg of membrane and 0.1 nM ^125I-hNMU-25 (about 12,000 cpm/well). For non-specific binding, 1 μM hNMU-25 was added. About 5 μL of peptides were added to measure antagonist activity, and the entire reaction was incubated at room temperature with shaking for 80 minutes. The reaction was terminated by rapid filtration through 0.3% poly-ethylenimine presoaked Millipore 96-well filter plates and washed with ice-cold buffer (5 mM TrisCl pH 7.4, 10 mM MgCl2, 2.5 mM EDTA, 0.04% Triton X-100). Plates were air-dried overnight at room temperature and recovered radioactivity was determined by standard scintillation counting. IC50 values were determined using GraphPad Prism software.
(§3) Concentration-response curves and radioligand-binding data were fitted using Prism (GraphPad Software). Results are summarized below in Tables 8 and 9.

mouse NMUR2 = mouse NMUR2 (Mus musculus, UniProt Q8BZ39); experiment: 125I-hNMU-25 binding assay, mouse R2; design: expressed in transfected cells; host or cells: HEK-293 FLP-In cells (pcDNA5); settings: for IC50: binding
Chain of mouse NMUR2 (Q8BZ39 whole entry): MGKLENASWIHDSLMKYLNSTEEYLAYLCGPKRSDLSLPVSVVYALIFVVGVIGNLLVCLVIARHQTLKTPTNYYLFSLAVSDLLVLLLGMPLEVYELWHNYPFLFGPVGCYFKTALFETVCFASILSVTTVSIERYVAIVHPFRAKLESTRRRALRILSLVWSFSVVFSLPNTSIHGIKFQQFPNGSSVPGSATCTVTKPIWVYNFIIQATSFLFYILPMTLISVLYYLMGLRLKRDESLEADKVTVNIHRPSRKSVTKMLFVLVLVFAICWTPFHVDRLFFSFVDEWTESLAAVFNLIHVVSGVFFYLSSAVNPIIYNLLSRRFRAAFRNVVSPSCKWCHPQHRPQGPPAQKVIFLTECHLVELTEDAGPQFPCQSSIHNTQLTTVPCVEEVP
Procedure: as §1, §2, §3

rat NMUR1-ATG = target: T2, rat NMUR1-ATG (Rattus norvegicus, UniProt Q9JJI5); experiment: 125I-hNMU-25 binding assay, rat R1-ATG; design: expressed in transfected cells; host or cells: HEK-293 FLP-In cells (pcDNA5); settings: for IC50: binding
T2 sequence (Q9JJI5 1-425): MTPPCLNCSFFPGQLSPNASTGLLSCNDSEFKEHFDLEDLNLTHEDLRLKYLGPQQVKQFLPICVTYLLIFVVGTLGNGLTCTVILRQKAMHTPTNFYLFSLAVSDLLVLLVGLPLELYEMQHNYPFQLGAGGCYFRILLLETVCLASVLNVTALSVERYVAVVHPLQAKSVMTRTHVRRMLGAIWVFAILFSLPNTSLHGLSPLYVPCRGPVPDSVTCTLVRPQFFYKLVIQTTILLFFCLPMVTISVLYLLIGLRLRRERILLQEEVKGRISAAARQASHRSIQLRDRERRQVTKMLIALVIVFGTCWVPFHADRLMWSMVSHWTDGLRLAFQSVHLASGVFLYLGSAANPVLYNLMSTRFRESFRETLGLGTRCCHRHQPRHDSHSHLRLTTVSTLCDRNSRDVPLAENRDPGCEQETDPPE
Procedure: as §1, §2, §3

mouse NMUR1-ATG = target: T3, mouse NMUR1-ATG (Mus musculus, UniProt O55040); experiment: 125I-hNMU-25 binding assay, mouse R1-ATG; design: expressed in transfected cells; host or cells: HEK-293 FLP-In cells (pcDNA5); settings: for IC50: binding
T3 sequence (O55040 1-428): T1 sequence (O55040 1-428)
Procedure: as §1, §2, §3

diet-induced obese mice = experiment: Feeding study in diet-induced obese mice (food intake, body weight); type: in vivo; settings: for % Food intake (FI) reductions Day 1: Day 1, based on vehicle responses; for % Food intake (FI) reductions Day 2: Day 2, based on vehicle responses; for % Food intake (FI) reductions Day 3: Day 3, based on vehicle responses
Description: NMUR1 knockout (Nmur1−/−) mice were generated using standard homologous recombination techniques. Nmur1 mice were subsequently transferred to Taconic Farms where they were either maintained on a 75% C57BL/6×25% 129S6/SvEv mixed genetic background or backcrossed six generations to C57BL/6. NMUR2 knockout (Nmur2−/−) mice were licensed from Deltagen Inc., San Mateo, Calif. and subsequently transferred to Taconic Farms where they were either maintained on a 75% C57BL/6×25% 129/OlaHsd mixed genetic background or backcrossed for seven generations to C57BL/6. NMUR1 and NMUR2 double knockout (Nmur1&2−/−) mice were generated by crossing N6 Nmur1−/− mice to N7 Nmur2−/− mice. Mice were individually housed in Tecniplast cages in a conventional SPF facility. Mice were initially maintained on a regular chow diet and then early in their life were switched to a high fat diet (D12492: 60% kcal from fat; Research Diets, Inc., New Brunswick, N.J.) with ad libitum access to water in a 12-hour light/12-hour dark cycle.
Ad libitum fed male diet-induced obese mice were weighed and dosed either i.p. or s.c. about 30 minutes prior to the onset of the dark phase of the light cycle and provided with a preweighed aliquot of high fat diet D12492 which was then weighed 2 hours and 18 hours (day 1), 42 hours (day 2), 66 hours (day 3), and 90 hours (day 4) after the onset of the initial dark phase. Mice were weighed at the 18, 42, 66 and 90 hour time points.

rat NMUR1-TTG = target: T4, rat NMUR1-TTG (Rattus norvegicus, UniProt Q9JJI5); experiment: 125I-hNMU-25 binding assay, rat R1-TTG; design: expressed in transfected cells; host or cells: HEK-293 FLP-In cells (pcDNA5); settings: for IC50: binding
T4 sequence (Q9JJI5 1-425): T2 sequence (Q9JJI5 1-425)
Procedure: as §1, §2, §3

[1] = acute peripheral administration, wild-type mice

CCN1C(=O)CC(SC[C@H](NC(C)=O)C(=O)N[C@@H](Cc2ccccc2)C(=O)N[C@@H](CCCNC(=N)N)C(=O)N[C@H](C(=O)N[C@@H](CC(=O)O)C(=O)N[C@@H](CCC(=O)O)C(=O)N[C@@H](CCC(=O)O)C(=O)N[C@@H](Cc2ccccc2)C(=O)N[C@@H](CCC(N)=O)C(=O)N[C@@H](CO)C(=O)N2CCC[C@H]2C(=O)N[C@@H](Cc2ccccc2)C(=O)N[C@@H](C)C(=O)N[C@@H](CO)C(=O)N[C@@H](CCC(N)=O)C(=O)N[C@@H](CO)C(=O)N[C@@H](CCCNC(=N)N)C(=O)NCC(=O)N[C@@H](Cc2ccc(O)cc2)C(=O)N[C@@H](Cc2ccccc2)C(=O)N[C@H](C)C(=O)N[C@@H](Cc2c[nH]c3ccccc23)C(=O)N[C@@H](CCCNC(=N)N)C(=O)N2CCC[C@H]2C(=O)N[C@@H](CCCNC(=N)N)C(=O)N[C@@H](CC(N)=O)C(N)=O)C(C)C)C1=O (some centres unmarked) [NMU13] (Ac-C(Succinimide(1-Et,3-yl))FRVDEEFQSPFASQSRGYF[dA]WRPRN-NH2)
% inhibition of NMU-25 binding (Mouse NMUR1-CTG): 100%
% inhibition of NMU-25 binding (mouse NMUR2): 30%
IC50 (mouse NMUR2): > 1000 nM
% inhibition of NMU-25 binding (rat NMUR1-ATG): 100%
% inhibition of NMU-25 binding (mouse NMUR1-ATG): 100%
food intake (diet-induced obese mice; [1]): significantly reduced food intake
% inhibition of NMU-25 binding (rat NMUR1-TTG): 100%

Ac-FRVDEEFQSPFASQSRPYFLFRPRN-NH2 [NMU5]
Body weight (BW) change (in grams) {relative to vehicle} Day 1 (diet-induced obese mice; 3 mg/kg): −0.5 grams
% Food intake (FI) reductions Day 1 (diet-induced obese mice; 3 mg/kg): 26%

Ac-FRVDEEFQSPFASQSRGYFLFRPRN-NH2 [NMU2]
Body weight (BW) change (in grams) {relative to vehicle} Day 1 (diet-induced obese mice; 3 mg/kg): −0.7 grams
% Food intake (FI) reductions Day 1 (diet-induced obese mice; 3 mg/kg): 25%

H-FRVDEEFQSPFASQSRPYFLFRPRN-NH2 [NMU4]
Body weight (BW) change (in grams) {relative to vehicle} Day 1 (diet-induced obese mice; 3 mg/kg): −0.3 grams
% Food intake (FI) reductions Day 1 (diet-induced obese mice; 3 mg/kg): 12%

Ac-C2FRVDEEFQSPFASQSRGYFLFRPRN-CONH2 [NMU9] ({Ac-C(PEG 40 kDa)}-FRVDEEFQSPFASQSRGYFLFRPRN-NH2) [C2 = Cys(PEG)240 kDa from Nektar (mPEG2-MAL-40 k)]
extension of serum half-life by PEGylation (diet-induced obese mice): three days
Body weight (BW) change (in grams) {relative to vehicle} Day 1 (diet-induced obese mice; 10 mg/kg): −2.0 grams
% Food intake (FI) reductions Day 1 (diet-induced obese mice; 10 mg/kg): 56%
Body weight (BW) change (in grams) {relative to vehicle} Day 2 (diet-induced obese mice; 10 mg/kg): −1.2 grams
% Food intake (FI) reductions Day 2 (diet-induced obese mice; 10 mg/kg): 57%
Body weight (BW) change (in grams) {relative to vehicle} Day 3 (diet-induced obese mice; 10 mg/kg): −0.2 grams
% Food intake (FI) reductions Day 3 (diet-induced obese mice; 10 mg/kg): 18%

Ac-C2FQSPFASQSRGYFLFRPRN-CONH2 ({Ac-C(PEG 40 kDa)}-FQSPFASQSRGYFLFRPRN-NH2; not fully specified; printed as Ac-C2FQSPFASQSRGYFLFRPRN-CONH2) [NMU20, C2 = Cys(PEG)240 kDa]
extension of serum half-life by PEGylation (diet-induced obese mice): three days
Body weight (BW) change (in grams) {relative to vehicle} Day 1 (diet-induced obese mice; 10 mg/kg): −2.2 grams
% Food intake (FI) reductions Day 1 (diet-induced obese mice; 10 mg/kg): 67%
Body weight (BW) change (in grams) {relative to vehicle} Day 2 (diet-induced obese mice; 10 mg/kg): −1.1 grams
% Food intake (FI) reductions Day 2 (diet-induced obese mice; 10 mg/kg): 65%
Body weight (BW) change (in grams) {relative to vehicle} Day 3 (diet-induced obese mice; 10 mg/kg): +0.3 grams
% Food intake (FI) reductions Day 3 (diet-induced obese mice; 10 mg/kg): 23%

CC(C)C[C@@H](NC(=O)[C@H](Cc1ccccc1)NC(=O)[C@H](Cc1ccc(O)cc1)NC(=O)CNC(=O)[C@H](CCCNC(=N)N)NC(=O)[C@H](CO)NC(=O)[C@H](CCC(N)=O)NC(=O)[C@H](CO)NC(=O)[C@H](C)NC(=O)[C@H](Cc1ccccc1)NC(=O)[C@@H]1CCCN1C(=O)[C@H](CO)NC(=O)[C@H](CCC(N)=O)NC(=O)[C@H](Cc1ccccc1)NC(=O)[C@H](CCC(=O)O)NC(=O)[C@H](CCC(=O)O)NC(=O)[C@H](CC(=O)O)NC(=O)[C@@H](NC(=O)[C@H](CCCNC(=N)N)NC(=O)[C@@H](N)Cc1ccccc1)C(C)C)C(=O)N[C@@H](Cc1c[nH]c2ccccc12)C(=O)N[C@@H](CCCNC(=N)N)C(=O)N1CCC[C@H]1C(=O)N[C@@H](CCCNC(=N)N)C(=O)N[C@@H](CC(N)=O)C(N)=O [Agonist H] (H-FRVDEEFQSPFASQSRGYF[dL]WRPRN-NH2; N-terminus assumed)
% inhibition of NMU-25 binding (Mouse NMUR1-CTG): 83%
IC50 (Mouse NMUR1-CTG): 25 nM
% inhibition of NMU-25 binding (mouse NMUR2): 20%
IC50 (mouse NMUR2): > 1000 nM
% inhibition of NMU-25 binding (rat NMUR1-ATG): 100%
IC50 (rat NMUR1-ATG): 15.9 nM
% inhibition of NMU-25 binding (mouse NMUR1-ATG): 77%
IC50 (mouse NMUR1-ATG): 66 nM
food intake (diet-induced obese mice; [1]): significantly reduced food intake
food intake (diet-induced obese mice; ip 3.25 mmoles/kg, diet-induced obese Nmur1+/+ and Nmur1−/− mice, about 2 and 18 hours): reduces food intake
% inhibition of NMU-25 binding (rat NMUR1-TTG): 100%
IC50 (rat NMUR1-TTG): 11 nM

CC(=O)N[C@@H](CSCC(=O)O[C@H]1CC[C@@]2(C)C(=CC[C@H]3[C@@H]4CC[C@H]([C@H](C)CCCC(C)C)[C@@]4(C)CC[C@@H]32)C1)C(=O)NCC(=O)N[C@@H](Cc1ccc(O)cc1)C(=O)N[C@@H](Cc1ccccc1)C(=O)N[C@@H](CC(C)C)C(=O)N[C@@H](Cc1ccccc1)C(=O)N[C@@H](CCCNC(=N)N)C(=O)N1CCC[C@H]1C(=O)N[C@@H](CCCNC(=N)N)C(=O)N[C@@H](CC(N)=O)C(N)=O [NMU11] (Ac-C(X1)GYFLFRPRN-NH2)
extension of serum half-life by PEGylation (diet-induced obese mice): two days

H-FRVDEEFQSPFASQSRGYFLFRPRN-NH2 [hNMU-25, reference compound]
IC50 (Mouse NMUR1-CTG): 0.15 nM
IC50 (mouse NMUR2): 0.2 nM
IC50 (rat NMUR1-ATG): 1.2 nM
IC50 (mouse NMUR1-ATG): 0.4 nM
Body weight (BW) change (in grams) {relative to vehicle} Day 1 (diet-induced obese mice; 10 mg/kg): −0.6 grams
% Food intake (FI) reductions Day 1 (diet-induced obese mice; 10 mg/kg): 21%
IC50 (rat NMUR1-TTG): 0.2 nM
